Measurements taken from article PMC5259791 (Scientific Reports, 2017).

Key:
PPARγ1 = target: T1, PPARγ1 (Homo sapiens, UniProt P37231); test: PPRE-luciferase transactivation in HEK293 cells stably expressing exogenous PPARγ; format: cell-based
T1 construct: from a transfected PCDNA-3 vector carrying a complete PPARγ cDNA; expressed in transfected cells
T1 sequence (P37231 1-477 isoform P37231-2): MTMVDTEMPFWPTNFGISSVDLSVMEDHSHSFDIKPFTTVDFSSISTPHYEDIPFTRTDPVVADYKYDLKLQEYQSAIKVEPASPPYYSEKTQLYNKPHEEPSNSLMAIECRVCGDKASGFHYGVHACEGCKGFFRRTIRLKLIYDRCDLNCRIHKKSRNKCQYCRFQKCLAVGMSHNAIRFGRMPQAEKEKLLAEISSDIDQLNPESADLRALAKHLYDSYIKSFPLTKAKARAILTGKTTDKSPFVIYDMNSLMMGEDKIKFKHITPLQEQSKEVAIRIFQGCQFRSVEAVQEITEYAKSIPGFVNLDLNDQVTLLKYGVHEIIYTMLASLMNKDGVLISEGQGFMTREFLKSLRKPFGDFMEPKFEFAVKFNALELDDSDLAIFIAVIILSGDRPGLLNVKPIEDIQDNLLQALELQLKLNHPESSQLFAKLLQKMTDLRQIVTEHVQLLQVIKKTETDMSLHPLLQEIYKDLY
Description: These cells were selected as they express a fixed and known amount of PPARγ, so that the differences in luciferase activity can be ascribed to the different ligand used. […] (b) Human HEK293T cells were co-transfected with the PPRE-luciferase reporter gene and the wild-type PPARγ1 or its mutant version (C285A).
HEK293 cells that stably express an exogenous Flag-tagged PPARγ from a transfected PCDNA-3 vector carrying a complete PPARγ cDNA were used for transfection experiments. The PPRE-Luc plasmid contains a luciferase reporter gene under the transcriptional control of three copies of the PPRE (Peroxisome Proliferator Response Element) derived from Acyl-CoA oxidase gene fused upstream to the herpes simplex thymidine kinase (TK) promoter, as described. […] Transient transfection assays were carried out as described in ref. [44]. […] In this case, the experiments were carried out into basal HEK293T cells and the RSV-β-Gal plasmid was used as control for transfection efficiency. […] The wild type and mutant PPARγ containing expression vectors were kindly provided by Dott. Takuma Shiraki. At least three independent experiments were performed for each transfection carried out in duplicate. Luciferase activity was normalized to β-galactosidase activity and reported as fold-induction.

PPARα = target: T2, PPARα (Homo sapiens, UniProt Q07869); test: SPR on immobilized PPARα; format: binding
T2 construct: purchased Tebu-Bio
T2 sequence (Q07869 1-468): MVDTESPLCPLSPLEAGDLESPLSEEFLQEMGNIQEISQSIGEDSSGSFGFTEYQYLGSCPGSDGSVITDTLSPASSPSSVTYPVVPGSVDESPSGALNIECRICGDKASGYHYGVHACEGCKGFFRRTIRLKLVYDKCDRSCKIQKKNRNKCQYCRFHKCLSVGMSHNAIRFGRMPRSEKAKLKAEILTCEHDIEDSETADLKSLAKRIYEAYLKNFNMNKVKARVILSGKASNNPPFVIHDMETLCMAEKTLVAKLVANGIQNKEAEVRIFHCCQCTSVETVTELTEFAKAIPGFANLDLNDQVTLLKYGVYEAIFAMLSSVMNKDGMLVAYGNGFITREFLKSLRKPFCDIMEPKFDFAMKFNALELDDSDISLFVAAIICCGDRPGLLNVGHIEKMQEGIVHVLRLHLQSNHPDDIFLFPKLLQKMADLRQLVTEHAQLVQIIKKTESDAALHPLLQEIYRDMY
Method: In order to evaluate if 1 acts as a selective ligand of PPARγ, SPR analyses were also carried out on immobilized PPARα and PPARδ, two proteins structurally and functionally related to PPARγ[23][24].
SPR analyses were carried out on a BIACORE 3000 instrument (GE-Healthcare). PPARα, PPARγ, PPARδ and HSP60 surfaces were prepared on research−grade CM5 sensor chips (GE Healthcare). Proteins (100 μg/ml in 10 mM CH3COONa, pH 5.0) were immobilized using a standard amine−coupling protocol, to obtain densities of 3–5 kRU. Testing compounds were dissolved in 100% DMSO to obtain 4 mM solutions, and then diluted in PBS containing variable amounts of DMSO, achieving a final DMSO concentration of 0.1%. For each molecule a five−point concentration series (25 nM, 65 nM, 150 nM, 400 nM, 1 μM) was set up. SPR experiments and data elaboration were carried out as reported elsewhere.

HT29 cells = test: Western blot of proliferation/apoptosis markers in HT29 cells; format: cell-based
Description: In addition, the expression of two components of the apoptotic pathway, such as caspase 3 and its substrate Poly (ADP-ribose) polymerase (PARP), was affected resulting in a reduction of the pro-caspase 3 precursor and an increase of the PARP cleaved form. Pre-treatment with GW9662 counteracted both the effects (Fig. 7b,c).
The graphs in (a–c) represent the mean ± SD of the protein/β-actin ratio from two independent experiments for p21^waf1/cip1, Caspase-3 precursor and cleaved PARP proteins, respectively. The graph in (d) represents the mean ± SD of pAKT/AKT ratio from two independent experiments.
Treated and untreated cells were lysed in Ripa buffer (150 mM NaCl, 50 mM Tris-HCl, pH 7.6, 10 mM EDTA, 1% NP-40) containing also a protease inhibitors cocktail and then centrifugated at 17,000 RCF for 10 min, at 4 °C. Supernatant containing total proteins was quantified and 80 μg of each sample were separated on 12% SDS-PAGE. Western blotting assays were carried out] Protein extracts from treated and untreated cells were obtained, quantified and analyzed by Western blot as reported.

[1] = exposure for 6 h, compound alone

Compound: C=C1C(=O)C23CCC4C(C(=O)OC)CC(O)CC4(C)C2CCC1C3 (centres unmarked) [Compound 1, 15-ketoatractyligenin methyl ester]
- effect of detergent on transactivation activity profile (PPARγ1; 0.001% Tween 20 in the medium): not find any variation in the bell-shaped activity profile
- concentration at peak of luciferase activity (PPARγ1; 24 h treatment, HEK293 stably expressing PPARγ): 1 µM
- transactivation activity lower than Rosiglitazone (PPARγ1; 24 h treatment, relative to Rosiglitazone): about 40%
- type of PPARγ agonism (PPARγ1; transactivation assay): partial agonist
- interaction with PPARα (PPARα): only a weak interaction
- time to complete dissociation of complex (PPARα; 1/PPARα complex): less than 50 s
- Kd (PPARα; immobilized PPARα): 1320 ± 80 nM
- p21^waf1/cip1 levels (HT29 cells; [1]): sharply increased
- p-AKT levels (HT29 cells; [1]): robust reduction
- PARP cleaved form (HT29 cells; exposure for 48 h): increase
- pro-caspase 3 precursor expression (HT29 cells; exposure for 48 h): reduction
